From patent publication US20220306640A1, “HYDANTOIN DERIVATIVE” (ONO PHARMACEUTICAL CO., LTD., priority 2019, published 2022)

Tests used:
DDR1 = molecular target: T1, DDR1 (Homo sapiens, UniProt Q08345); test: Measurement of DDR1 inhibitory activity (LanthaScreen system, in vitro test); type: binding; conditions: GST-DDR1, Kinase tracer 178
T1 construct: purchased Invitrogen
Outline: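 TR-FRET tracer-displacement binding assay with GST-DDR1, Kinase tracer 178 and Eu-anti-GST antibody in HEPES pH 7.5, MgCl2, EGTA, Brij-35 buffer, 1% DMSO. Compound preincubated with enzyme 15 min at RT, then tracer/antibody 1 h at RT; 665/615 nm read. Percent inhibition versus no-enzyme and DMSO controls; IC50 from inhibition curves.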

KDR = KDR (Homo sapiens, UniProt P35968); test: Evaluation of kinase selectivity: % inhibition rate of KDR at 1 μmol/L; type: biochemical; conditions: compound at 1 μmol/L
Chain of KDR (P35968 20-1356, species assumed): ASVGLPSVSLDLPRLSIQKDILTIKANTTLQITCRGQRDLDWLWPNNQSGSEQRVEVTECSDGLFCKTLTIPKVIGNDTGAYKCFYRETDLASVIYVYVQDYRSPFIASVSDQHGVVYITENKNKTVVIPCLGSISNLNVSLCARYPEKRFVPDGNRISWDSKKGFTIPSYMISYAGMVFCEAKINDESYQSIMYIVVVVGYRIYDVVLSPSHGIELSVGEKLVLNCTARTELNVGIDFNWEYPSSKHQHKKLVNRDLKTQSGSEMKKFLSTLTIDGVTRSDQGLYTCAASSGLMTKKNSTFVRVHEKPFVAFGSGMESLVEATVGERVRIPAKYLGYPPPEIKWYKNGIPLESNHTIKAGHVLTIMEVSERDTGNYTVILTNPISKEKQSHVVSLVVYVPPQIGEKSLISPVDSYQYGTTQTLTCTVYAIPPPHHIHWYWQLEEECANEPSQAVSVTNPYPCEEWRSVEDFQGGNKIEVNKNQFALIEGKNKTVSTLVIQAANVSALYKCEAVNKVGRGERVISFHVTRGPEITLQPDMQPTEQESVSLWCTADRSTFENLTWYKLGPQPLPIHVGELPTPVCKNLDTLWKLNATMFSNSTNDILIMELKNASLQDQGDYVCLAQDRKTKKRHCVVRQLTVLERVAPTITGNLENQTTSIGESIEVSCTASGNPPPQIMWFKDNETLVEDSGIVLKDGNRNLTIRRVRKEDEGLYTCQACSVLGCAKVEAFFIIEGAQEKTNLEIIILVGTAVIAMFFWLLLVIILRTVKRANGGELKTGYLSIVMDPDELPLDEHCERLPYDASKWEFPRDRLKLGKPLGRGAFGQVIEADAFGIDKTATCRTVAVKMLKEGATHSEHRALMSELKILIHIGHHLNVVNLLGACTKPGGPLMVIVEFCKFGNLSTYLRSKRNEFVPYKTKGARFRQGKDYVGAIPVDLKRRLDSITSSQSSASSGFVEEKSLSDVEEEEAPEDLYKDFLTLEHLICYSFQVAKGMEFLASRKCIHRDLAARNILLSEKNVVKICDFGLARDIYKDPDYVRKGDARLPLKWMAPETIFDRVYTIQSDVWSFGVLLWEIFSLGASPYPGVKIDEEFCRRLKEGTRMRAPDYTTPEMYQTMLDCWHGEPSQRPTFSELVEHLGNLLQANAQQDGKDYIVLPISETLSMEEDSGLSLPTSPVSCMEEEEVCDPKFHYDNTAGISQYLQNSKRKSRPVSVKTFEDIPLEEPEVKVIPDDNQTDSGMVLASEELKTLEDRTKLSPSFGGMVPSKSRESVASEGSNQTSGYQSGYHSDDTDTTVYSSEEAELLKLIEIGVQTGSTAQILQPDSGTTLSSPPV
Method: (§1) Biological Example 3: Evaluation of Kinase Selectivity
(§2) % inhibition rate with respect to various kinases (for example KDR etc.) of 1 μmol/L the test compound is measured.
(§3) A general assay condition (substrates, cofactor, ATP concentrations and reaction time etc.) suitable for respective kinase enzyme inhibition activity test is used.
(§4) 1 Prepare the test compounds into 1 mmol/L DMSO solution. 2 Transfer 20 nL of stock to 384 assay plate. Use DMSO as High and Low controls.
(§5) 1 Prepare the 1.3× Enzyme solution containing enzyme, substrate and cofactors. 2 Add 15 μL of 1.3× Enzyme solutions to each well and incubate the plate at room temperature for 30 min. 3 Initiate the reaction by adding 5 μL of 4×ATP solution. The final volume of each well should be 20 μL. 4 Incubate the plate at room temperature for reaction and add 75 μL of stopping buffer (containing 0.5 mol/L EDTA) to terminate the reaction.
(§6) Analyze the sample of each well using EZ reader (PerkinElmer).
(§7) Calculate the % Inhibition using read conversion ratio (CR) following the equation as below.
(§8) Use well treated with DMSO as High Control Use well without enzyme as Low Control

Flt-3 = molecular target: T2, Flt-3 (Homo sapiens, UniProt P36888); test: Evaluation of kinase selectivity: % inhibition rate of Flt-3 at 1 μmol/L; type: biochemical; conditions: compound at 1 μmol/L
T2 sequence (P36888 27-993): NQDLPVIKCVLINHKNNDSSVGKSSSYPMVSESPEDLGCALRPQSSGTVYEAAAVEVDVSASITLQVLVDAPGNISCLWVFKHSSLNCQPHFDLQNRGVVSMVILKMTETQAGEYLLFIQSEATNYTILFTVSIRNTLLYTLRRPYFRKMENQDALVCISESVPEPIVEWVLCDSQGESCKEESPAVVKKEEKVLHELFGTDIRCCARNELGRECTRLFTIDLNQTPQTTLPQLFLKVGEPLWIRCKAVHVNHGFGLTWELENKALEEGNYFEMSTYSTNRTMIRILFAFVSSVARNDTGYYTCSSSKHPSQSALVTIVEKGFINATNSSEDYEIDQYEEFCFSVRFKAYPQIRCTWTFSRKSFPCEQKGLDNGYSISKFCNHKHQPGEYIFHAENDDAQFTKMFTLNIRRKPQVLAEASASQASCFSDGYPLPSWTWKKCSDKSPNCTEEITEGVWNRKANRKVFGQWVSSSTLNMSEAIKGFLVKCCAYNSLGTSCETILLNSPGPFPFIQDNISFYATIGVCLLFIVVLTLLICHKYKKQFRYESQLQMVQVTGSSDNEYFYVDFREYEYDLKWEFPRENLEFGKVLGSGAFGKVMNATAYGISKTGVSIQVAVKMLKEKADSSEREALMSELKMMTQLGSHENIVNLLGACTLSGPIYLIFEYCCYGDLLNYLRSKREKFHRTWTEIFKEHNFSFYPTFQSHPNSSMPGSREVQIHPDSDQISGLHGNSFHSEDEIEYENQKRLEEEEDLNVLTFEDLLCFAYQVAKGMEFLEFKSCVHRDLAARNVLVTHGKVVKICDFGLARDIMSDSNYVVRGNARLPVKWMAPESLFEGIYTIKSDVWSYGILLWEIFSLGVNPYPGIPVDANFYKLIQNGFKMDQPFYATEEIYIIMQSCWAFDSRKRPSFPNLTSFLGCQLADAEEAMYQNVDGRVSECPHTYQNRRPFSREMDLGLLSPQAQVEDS
Method: as §1, §2, §3, §4, §5, §6, §7, §8

ROCK = ROCK (Homo sapiens, UniProt O75116); test: Evaluation of kinase selectivity: % inhibition rate of ROCK at 1 μmol/L; type: biochemical; conditions: compound at 1 μmol/L; read-out: % inhibition rate of ROCK2
Chain of ROCK (O75116 whole entry): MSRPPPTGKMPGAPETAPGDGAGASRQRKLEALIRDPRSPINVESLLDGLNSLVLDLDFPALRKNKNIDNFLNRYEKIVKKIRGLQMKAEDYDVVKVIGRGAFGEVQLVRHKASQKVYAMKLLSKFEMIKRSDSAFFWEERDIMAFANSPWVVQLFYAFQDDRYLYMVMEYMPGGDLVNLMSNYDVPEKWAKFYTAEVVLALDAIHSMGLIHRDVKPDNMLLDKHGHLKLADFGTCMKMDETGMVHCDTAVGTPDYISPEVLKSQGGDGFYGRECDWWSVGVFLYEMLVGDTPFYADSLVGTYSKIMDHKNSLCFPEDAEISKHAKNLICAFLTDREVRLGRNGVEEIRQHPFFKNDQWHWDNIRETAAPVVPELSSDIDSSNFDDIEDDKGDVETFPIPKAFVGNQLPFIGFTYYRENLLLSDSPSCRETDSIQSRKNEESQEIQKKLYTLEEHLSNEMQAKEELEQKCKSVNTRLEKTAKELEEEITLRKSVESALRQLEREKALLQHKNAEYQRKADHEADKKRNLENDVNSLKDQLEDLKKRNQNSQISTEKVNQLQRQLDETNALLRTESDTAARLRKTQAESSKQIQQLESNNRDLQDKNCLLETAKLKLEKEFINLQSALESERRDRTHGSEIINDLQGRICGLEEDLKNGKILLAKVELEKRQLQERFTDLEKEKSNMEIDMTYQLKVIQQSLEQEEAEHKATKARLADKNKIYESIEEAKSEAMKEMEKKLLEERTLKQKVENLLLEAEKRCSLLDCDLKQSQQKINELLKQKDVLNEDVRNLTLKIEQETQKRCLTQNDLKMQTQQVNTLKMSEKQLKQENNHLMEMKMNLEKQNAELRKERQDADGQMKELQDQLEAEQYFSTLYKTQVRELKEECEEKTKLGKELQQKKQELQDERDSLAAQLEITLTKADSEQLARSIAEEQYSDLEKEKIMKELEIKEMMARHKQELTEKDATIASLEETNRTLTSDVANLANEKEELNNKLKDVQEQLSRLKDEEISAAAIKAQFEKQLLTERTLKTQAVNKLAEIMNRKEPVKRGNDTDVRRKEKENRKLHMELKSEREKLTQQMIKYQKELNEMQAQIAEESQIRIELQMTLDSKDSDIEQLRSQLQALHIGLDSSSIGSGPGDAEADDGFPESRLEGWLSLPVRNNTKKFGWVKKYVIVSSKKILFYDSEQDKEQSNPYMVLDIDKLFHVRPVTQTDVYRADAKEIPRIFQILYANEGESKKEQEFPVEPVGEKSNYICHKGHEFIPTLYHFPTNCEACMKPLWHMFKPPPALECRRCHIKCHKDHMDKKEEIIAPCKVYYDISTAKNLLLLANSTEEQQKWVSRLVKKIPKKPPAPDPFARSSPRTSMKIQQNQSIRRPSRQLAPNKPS
Method: as §1, §2, §3, §4, §5, §6, §7, §8

T1 sequence (Q08345 19-913): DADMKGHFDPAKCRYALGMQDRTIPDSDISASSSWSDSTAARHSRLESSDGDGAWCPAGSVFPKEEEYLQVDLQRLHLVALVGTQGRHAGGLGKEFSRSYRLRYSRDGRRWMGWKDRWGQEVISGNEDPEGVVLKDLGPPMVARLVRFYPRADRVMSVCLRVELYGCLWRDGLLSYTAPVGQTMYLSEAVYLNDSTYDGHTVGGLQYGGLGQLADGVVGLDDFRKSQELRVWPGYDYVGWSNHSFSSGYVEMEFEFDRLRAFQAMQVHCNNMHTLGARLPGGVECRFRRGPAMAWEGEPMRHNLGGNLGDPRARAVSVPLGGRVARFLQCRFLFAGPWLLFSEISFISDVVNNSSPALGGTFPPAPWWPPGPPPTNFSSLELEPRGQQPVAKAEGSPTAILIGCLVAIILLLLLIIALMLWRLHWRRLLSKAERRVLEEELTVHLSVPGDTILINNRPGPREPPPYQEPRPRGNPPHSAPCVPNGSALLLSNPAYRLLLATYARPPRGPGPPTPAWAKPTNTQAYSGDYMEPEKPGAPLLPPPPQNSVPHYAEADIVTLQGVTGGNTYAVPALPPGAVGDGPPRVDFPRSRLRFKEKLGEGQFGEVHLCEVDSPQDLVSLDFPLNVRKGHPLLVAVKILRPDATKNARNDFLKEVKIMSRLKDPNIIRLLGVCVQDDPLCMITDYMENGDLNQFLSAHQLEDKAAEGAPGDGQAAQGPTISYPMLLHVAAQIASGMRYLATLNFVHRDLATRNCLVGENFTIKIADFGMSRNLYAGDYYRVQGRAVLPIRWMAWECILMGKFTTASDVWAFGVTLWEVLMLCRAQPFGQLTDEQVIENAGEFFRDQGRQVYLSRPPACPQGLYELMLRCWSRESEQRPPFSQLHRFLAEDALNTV

IC50 (DDR1): 1 nM | inhibition at 1 µM (KDR): 4% | inhibition at 1 µM (Flt-3): 6% | inhibition at 1 µM (ROCK): -2%
Compound: Cc1cc(Oc2ccnc(N)n2)ccc1N1C(=O)CN(c2ccc(F)c(OC(F)(F)F)c2)C1=O [Example 3(110), 3-{4-[(2-amino-4-pyrimidinyl)oxy]-2-methylphenyl}-1-[4-fluoro-3-(trifluoromethoxy)phenyl]-2,4-imidazolidinedione]
